Patent US9072751B2, “Na/K-ATPase ligand” (priority 2006, dated 2015)

Key:
Assay type in all cases: cell-based
SYF cells = assay: Procollagen expression in SYF cells; conditions: MBG 10 nM
Excerpt: (§1) To examine whether cardiotronic steroids induced collagen synthesis by signaling through the Na/K-ATPase, we performed the following studies. First, we used pharmacological antagonism at several steps in the Na/K-ATPase cascade. Specifically, we used pharmacological antagonism of Src activation with PP2, nonspecific tyrosine kinase inhibition with herbimycin, inhibition of EGFR transactivation with AG1478, and nonspecific antioxidant administration with N-acetyle cysteine. […] Next we performed studies in the SYF and SYF+ cells (details available in the online supplement).
(§2) The effects of PP2 (1 μmol/L), herbimycin (1 μmol/L), AG1478 (250 nM), and N-acetyl cysteine (2.5 mmol/L) on MBG (10 nM) stimulation of procollagen expression also were found. The PP2, herbimycin AG1478, and N-acetyl cysteine were administered from 2 hours before the addition of MBG and continued throughout the 24 hours of MBG incubation (total of 26 hours). Each bar represents the mean.+−.SEM of n=8 experiments. b, effects of PP2 (1 μmol/L) and N-acetyle cysteine (2.5 mmol/L) on MBG (10 nM)-stimulated proline incorporation into collagen. Again, the PP2 an N-acetyl cysteine were added 2 hours before exposure to MBG. Each bar represents the mean.+−.SEM of N=5 experiments. c, effects of MBG 10 nM on procollagen content in SYF and SYF+ cells. Representative Western blots are shown above quantitative data. […]

SYF+ cells = assay: Procollagen expression in SYF+ cells; conditions: MBG 10 nM
Excerpt: as §1, §2

fibroblast cell line = assay: Procollagen expression in immortalized fibroblast cell line (Western blot)
Excerpt: We next examined whether skin fibroblasts lines had similar response. This was done with dermal fibroblasts kindly provided by Dr. Bashar Kahaleh. […] The magnitude of this response is illustrated by comparison to maximal doses of TGFβ, the “classic” stimulus for fibrosis (see below). In addition, we observed that an immortalized fibroblast line responded similarly to MBG, ouabain and digoxin.
Response of dermal fibroblasts to MBG as compared with TGF beta. Note that increase in collagen expression in MBG is approximately 10 fold with 5 or 10 nM MBG.

Na/K-ATPase = biological target: T1, Na/K-ATPase (Rattus norvegicus, UniProt P06685); assay: Ouabain sensitive 86Rb uptake in cardiac fibroblasts
T1 construct: In vitro studies were then pursued with cultured isolated cardiac fibroblasts; endogenous in cells; host or cells: primary isolated cardiac fibroblasts in culture
Description: To further examine the molecular basis of this cardiac fibrosis, isolated cardiac fibroblasts were subjected to increase doses of MBG (10^−10, 10^−9, and 10^−8 M). […] Using collagenase digestion, we observed that the vast majority of the proline incorporation was into collagen. Using standardized RT-PCR, we observed a doubling of mRNA for collagen-1 at 24 hours in response to 10 nM of MBG.
Representative Western blot for procollagen and quantitative densitometric data obtained in response to different doses of (a) MBG (all N=10), (b) MBG 10 nM contrasted with different doses of ouabain (0.1 to 100 nM) and digoxin (10 nM; all N=8). c, ouabain sensitive Rb uptake as a function of MBG and ouabain concentration (N=4 at each concentration for both MBG and ouabain; data expressed as fraction of control). d, relative proline incorporation in the supernatant and matrix, both will and without collagenase digestion (total). Each group (controls and different doses of MBG) contains N=7 replicants. The difference between the total and after collagenase digestion is reported as collagen. […] Bars on quantitative graphs represent the mean.+−.SEM. *P<0.05 and **P<0.01 vs control.

Structure (SMILES): C[C@]12CC[C@H](O)C[C@@]1(O)CC[C@@H]1[C@@H]2CC[C@]2(C)[C@@H](c3ccc(=O)oc3)C[C@H]3O[C@]132 [MBG, marinobufagenin]
- Response of procollagen expression in SYF cells (SYF cells): essentially no response
- Upregulation of procollagen expression in SYF+ cells (SYF+ cells): very similar way as the primary cardiac fibroblast cultures
- Effect on fibroblast cell line expression of procollagen (fibroblast cell line): Comparable effect
- Threshold for inducing collagen expression relative to doses with detectable effects on 86Rb uptake (Na/K-ATPase): log units below
